Measurements published in patent publication US4404217A, “3-Indolyl alkylene amino propanols and cardiovascular compositions thereof” (C. M. Industries, priority 1979, dated 1983).
Like-named read-outs stand apart in the source and are kept apart here.

Tests used:
[1] = target: T1, α2 receptor (Rattus norvegicus, UniProt P22909); assay: Displacement of 3H clonidine, plasmic membranes of rat brains; format: binding; conditions: for affinity for the receptor with clonidine (α2): in vitro
T1 construct: plasmic membranes of rat brains; from tissue; host or cells: rat brain plasma membranes
T1 sequence (P22909 1-465): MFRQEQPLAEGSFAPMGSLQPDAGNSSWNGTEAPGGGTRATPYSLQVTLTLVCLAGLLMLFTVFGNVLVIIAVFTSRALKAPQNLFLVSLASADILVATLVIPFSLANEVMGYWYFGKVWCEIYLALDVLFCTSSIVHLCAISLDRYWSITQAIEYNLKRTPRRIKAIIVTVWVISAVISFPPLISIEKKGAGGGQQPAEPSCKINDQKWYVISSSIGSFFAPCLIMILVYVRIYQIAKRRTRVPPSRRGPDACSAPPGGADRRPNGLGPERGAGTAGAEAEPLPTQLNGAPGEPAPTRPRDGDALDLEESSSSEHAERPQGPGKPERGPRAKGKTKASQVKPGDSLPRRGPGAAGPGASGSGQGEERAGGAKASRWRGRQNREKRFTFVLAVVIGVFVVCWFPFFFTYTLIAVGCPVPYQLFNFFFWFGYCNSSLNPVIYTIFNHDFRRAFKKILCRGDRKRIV
Description: (§1) The binding tests are effected on suspensions of plasmic membranes coming from various organs. The suspensions of membranes are placed in incubation with the tritiated ligand and various concentrations of products to be tested. After incubation, each test is filtered on GFB(Whatman) filter, the filters are dried and introduced into counting flasks. The measurement of the radioactivity is assessed by scintillation in a liquid medium.
(§2) The tests were made on plasmic membranes of rat brains, in the presence of ^3 H clonidine 1.2×10^-9 M (α2 receptor) and of ^3 H WB4101 (N-[2-(2.6dimethoxyphenoxy)ethyl]1.4benzodioxane-2-methylamine), 0.2×10^-9 M (α1 receptor).

[2] = target: T2, β1 receptor (Canis lupus familiaris, UniProt P79148); assay: Displacement of 3H dihydroalprenolol, plasmic membranes of hearts of dogs; format: binding, dog; conditions: for affinity for β1 receptors (heart) versus β2 receptors (lungs): in vitro, compared with lung β2 (A5)
T2 construct: plasmic membranes of hearts of dogs (β1 receptor); from tissue; host or cells: dog heart plasma membranes
Description: as §1
(§3) The tests were made on plasmic membranes of hearts of dogs (β1 receptor) and lungs of rats (β2 receptors), in the presence of ^3 H dihydroalprenolol 4×10^-9 M.

[3] = target: T3, β2 receptors (Rattus norvegicus, UniProt P10608); assay: Displacement of 3H dihydroalprenolol, plasmic membranes of lungs of rats; format: binding
T3 construct: lungs of rats (β2 receptors); from tissue; host or cells: rat lung plasma membranes
Description: as §1, §3

[4] = test system: α adrenergic receptors; assay: Antagonism of the effects of noradrenaline (pressure response), anaesthetized dog, IV; format: in vivo; conditions: 50% inhibition of pressure response to noradrenaline
Description: (§4) The dog is anaesthetized using sodium pentobarbital, administered by the IV route at a dose of 30 mg/kg. A cannula placed in the saphenous vein allows the intra-venous injections of the products. The animal is submitted to intubation and is allowed to breathe spontaneously.
(§5) The cardiac frequency and the systemic arterial pressure are studied and the variations of these parameters are observed after intra-venous injection of the product to be tested. Each product is tested with increasing doses.
The antagonism of the products with respect to the vascular effects provoked by the IV administration of noradrenaline on the α adrenergic receptors has been sought. The results presented in Table III are expressed in ID50 : it is the dose (mg/kg) which provokes the inhibition by 50% of the pressure response due to the IV administration of noradrenaline.

[5] = target: α1 receptor; assay: Displacement of 3H WB 4101, plasmic membranes of rat brains; format: binding; conditions: for EC50: read-out: EC50 of DISPLACEMENT of 3H WB 4101, rat brain membranes, 3H WB4101 0.2×10^-9 M
Description: as §1, §2

[6] = target: T4, β adrenergic receptors (β2) (Canis lupus familiaris, UniProt P54833); assay: Antagonism of the effects of isoprenaline, hypotension (β2), anaesthetized dog, IV; format: in vivo; conditions: read-out: ID50 ISOPRENALINE β2
T4 construct: The dog is anaesthetized using sodium pentobarbital; from tissue; host or cells: whole anaesthetized dog (vasculature)
Description: as §4, §5
The antagonism of the products with respect to the β stimulant cardio-vascular effects of isoprenaline on the β adrenergic receptors has been sought. […] The last column indicates the cardioselectivity (β1 >β2) or a low cardioselectivity β1 ≥β2, or no cardioselectivity β1 <β2 and β1 =β2.

[7] = target: T5, β adrenergic receptors (β1) (Canis lupus familiaris, UniProt P79148); assay: Antagonism of the effects of isoprenaline, tachycardia (β1), anaesthetized dog, IV; format: in vivo; conditions: for cardioselectivity β1 - β2 / ED50: dog; for cardioselectivity β1 - β2: isoprenaline antagonism, β1 versus β2; for ED50: read-out: ID50 ISOPRENALINE β1; for cardioselective in vivo (selectively inhibit the cardiac receptors): test with isoprenaline
T5 construct: The dog is anaesthetized using sodium pentobarbital; from tissue; host or cells: whole anaesthetized dog (heart)

[8] = test system: platelet aggregation; assay: Anti-aggregating activity, BORN technique, plasma rich in platelets, ADP; format: cell-based, human; conditions: human platelet-rich plasma; for IC50: ADP, range over all products tested, read-out: concentration for inhibiting by 50% the maximum rate of aggregation
Description: The anti-aggregating activity of the CM 7743, 7744, 7824, 7854, 7859 and 7874 has been studied according to the BORN technique on plasma rich in platelets of human origin. ADP has been used as indicator of platelet aggregation. […] The required concentration for inhibiting by 50% the maximum rate of aggregation varies from 45 to 100 μM.

[9] = Cardiac frequency and arterial pressure in the anaesthetized dog after intravenous injection; format: in vivo; conditions: i.v. route, anaesthetised dog
Description: as §4, §5

[10] = dog heart membranes, 3H dihydroalprenolol 4×10^-9 M
[11] = rat lung membranes, 3H dihydroalprenolol 4×10^-9 M
[12] = IV, 50% inhibition of isoprenaline hypotension
[13] = rat brain membranes, 3H clonidine 1.2×10^-9 M
[14] = IV, 50% inhibition of isoprenaline tachycardia

T3 sequence (P10608 whole entry): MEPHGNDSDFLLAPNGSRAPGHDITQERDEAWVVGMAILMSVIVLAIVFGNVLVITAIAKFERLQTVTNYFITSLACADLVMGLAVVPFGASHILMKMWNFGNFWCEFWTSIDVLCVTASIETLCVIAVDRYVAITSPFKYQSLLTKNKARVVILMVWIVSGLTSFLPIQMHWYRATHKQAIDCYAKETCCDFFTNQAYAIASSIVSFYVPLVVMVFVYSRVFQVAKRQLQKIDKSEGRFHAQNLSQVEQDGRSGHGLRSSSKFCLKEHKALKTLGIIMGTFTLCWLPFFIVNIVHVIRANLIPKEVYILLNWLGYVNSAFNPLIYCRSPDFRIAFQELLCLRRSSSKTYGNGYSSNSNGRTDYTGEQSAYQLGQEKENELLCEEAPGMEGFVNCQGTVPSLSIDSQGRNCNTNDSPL
T4 sequence (P54833 whole entry): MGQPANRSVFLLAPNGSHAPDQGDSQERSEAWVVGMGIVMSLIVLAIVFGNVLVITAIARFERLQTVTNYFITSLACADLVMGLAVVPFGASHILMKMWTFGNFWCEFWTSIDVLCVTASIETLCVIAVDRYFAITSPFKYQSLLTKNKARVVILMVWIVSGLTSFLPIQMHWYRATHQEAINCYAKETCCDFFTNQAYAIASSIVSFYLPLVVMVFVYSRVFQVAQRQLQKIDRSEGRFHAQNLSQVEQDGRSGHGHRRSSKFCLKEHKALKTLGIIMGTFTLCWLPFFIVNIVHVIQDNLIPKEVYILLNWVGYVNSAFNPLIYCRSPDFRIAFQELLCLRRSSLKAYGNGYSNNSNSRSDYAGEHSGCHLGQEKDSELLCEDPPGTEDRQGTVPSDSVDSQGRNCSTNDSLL
T5 sequence (P79148 whole entry): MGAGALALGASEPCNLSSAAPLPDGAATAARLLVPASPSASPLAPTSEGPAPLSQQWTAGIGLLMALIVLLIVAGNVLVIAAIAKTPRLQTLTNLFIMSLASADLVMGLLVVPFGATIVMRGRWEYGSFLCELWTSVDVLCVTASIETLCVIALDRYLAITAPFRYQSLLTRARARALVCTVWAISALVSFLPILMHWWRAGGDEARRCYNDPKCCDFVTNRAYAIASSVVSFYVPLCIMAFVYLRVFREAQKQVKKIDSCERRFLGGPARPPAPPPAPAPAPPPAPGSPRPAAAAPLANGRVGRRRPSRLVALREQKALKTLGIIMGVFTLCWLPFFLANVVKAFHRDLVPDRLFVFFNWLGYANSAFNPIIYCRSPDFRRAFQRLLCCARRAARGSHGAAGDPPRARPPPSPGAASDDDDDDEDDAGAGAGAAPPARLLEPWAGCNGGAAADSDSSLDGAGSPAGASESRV
T2 sequence (P79148 whole entry): as above

| SMILES | EC50 [1] | affinity for the receptor with clonidine (α2) [1] | EC50 [2, 10] | EC50 [3, 11] | ID50 NORADRENALINE α [4] | EC50 [5] | ED50 [6, 12] | cardioselectivity β1 - β2 ([7]; IV) | ED50 ([7]; iv) | cardioselective in vivo (selectively inhibit the cardiac receptors) [7] | inhibition of the platelet response with respect to the ADP [8] | IC50 [8] | EC50 [1, 13] | affinity for β1 receptors (heart) versus β2 receptors (lungs) [2] | ED50 [7, 14] | reduction in the peripheral arterial pressure [9] | ED50 ([6]; iv) | EC50 [2] | EC50 [3] | affinity for the receptor with WB 4101 (α1) ([5]; in vitro) |
| --- | --- | --- | --- | --- | --- | --- | --- | --- | --- | --- | --- | --- | --- | --- | --- | --- | --- | --- | --- | --- |
| CC(Cc1c[nH]c2ccc(Cl)cc12)NCC(O)COc1ccc(CC(N)=O)cc1 (stereo not drawn) [compound 7859] | 19 nM | no affinity | 625 nM | 1000 nM | 0.3 to 3 mg/kg | 2.3 nM | ≥ 3 mg/kg | β1 > β2 (cardioselectivity (β1 >β2)) | 0.3 to 1 mg/kg | cardioselective in vivo | inhibited the platelet response | 45000 to 100000 nM |  |  |  |  |  |  |  |  |
| NC(=O)Cc1ccc(OCC(O)CNCCc2c[nH]c3ccccc23)cc1 (stereo not drawn) [compound 7748] |  | no affinity |  |  | 1 mg/kg | 2.7 nM | > 3 mg/kg | β1 > β2 (cardioselectivity (β1 >β2)) |  | cardioselective in vivo |  |  | 29.5 nM | clearly greater affinity for the β1 receptors (heart) than for the β2 receptors (lungs) | 1 to 3 mg/kg |  |  |  |  |  |
| Cc1ccccc1OC[C@@H](O)CN[C@@H](CO)Cc1c[nH]c2ccccc12 [compound 7899] |  |  | 135 nM | 82 nM | > 3 mg/kg |  | 0.3 to 1 mg/kg | β1 ≥ β2 (low cardioselectivity β1 ≥β2) |  |  |  |  |  |  | 0.3 mg/kg | reduction in the peripheral arterial pressure |  |  |  |  |
| CCCC(=O)Nc1ccc(OCC(O)CNC(C)Cc2c[nH]c3ccccc23)c(C(C)=O)c1 (stereo not drawn) [compound 7798] |  |  | 550 nM |  | > 3 mg/kg |  | ≥ 3 mg/kg | β1 > β2 (cardioselectivity (β1 >β2)) | 1 mg/kg | cardioselective in vivo |  |  |  | clearly greater affinity for the β1 receptors (heart) than for the β2 receptors (lungs) |  |  |  |  |  |  |
| Cc1ccccc1OC[C@H](O)CN[C@@H](CO)Cc1c[nH]c2ccccc12 [compound 7902] |  |  | 7400 nM | 3800 nM | > 3 mg/kg |  | > 3 mg/kg | β1 < β2 (no cardioselectivity β1 <β2) |  |  |  |  |  |  | > 3 mg/kg | reduction in the peripheral arterial pressure |  |  |  |  |
| Cc1ccccc1OC[C@@H](O)CN[C@H](CO)Cc1c[nH]c2ccccc12 [compound 7898] |  |  | 51 nM | 64 nM | > 3 mg/kg |  | 0.3 to 1 mg/kg | β1 ≥ β2 (low cardioselectivity β1 ≥β2) |  |  |  |  |  |  | 0.1 to 0.3 mg/kg | reduction in the peripheral arterial pressure |  |  |  |  |
| CCC(=O)c1ccc(OCC(O)CNC(C)Cc2c[nH]c3ccccc23)c(Cl)c1 (stereo not drawn) [compound 7743] |  | no affinity |  |  | 3 mg/kg |  |  | β1 ≥ β2 (low cardioselectivity β1 ≥β2) | 1 to 3 mg/kg |  | inhibited the platelet response | 45000 to 100000 nM |  |  |  |  | ≥ 3 mg/kg |  |  |  |
| CC(Cc1c[nH]c2ccc(F)cc12)NCC(O)COc1ccccc1 (stereo not drawn) [compound 40038] |  | no affinity |  |  | 0.1 mg/kg |  | > 0.3 mg/kg | β1 > β2 (cardioselectivity (β1 >β2)) | 0.1 mg/kg | cardioselective in vivo |  |  |  |  |  | reduction in the peripheral arterial pressure |  | 34 nM | 29 nM |  |
| Cc1ccccc1OCC(O)CNC(C)(C)Cc1c[nH]c2ccccc12 (stereo not drawn) [compound 7854] |  |  | 16 nM | 3.7 nM | 0.1 mg/kg | 320 nM | 0.02 to 0.1 mg/kg | β1 ≥ β2 (low cardioselectivity β1 ≥β2) |  |  | inhibited the platelet response | 45000 to 100000 nM | 6 nM |  | 0.01 to 0.1 mg/kg |  |  |  |  |  |
| Cc1ccccc1OCC(O)CNC(C)Cc1c[nH]c2ccc(F)cc12 (stereo not drawn) [compound 7983] |  |  |  |  | > 0.3 mg/kg | 600 nM |  | β1 > β2 (cardioselectivity (β1 >β2)) | 0.3 mg/kg | cardioselective in vivo |  |  |  |  |  |  | > 0.3 mg/kg | 19 nM | 47 nM | have an affinity |
| CC(Cc1c[nH]c2ccccc12)NCC(O)COc1ccccc1C(=O)c1ccccc1 (stereo not drawn) [compound 7904] |  |  |  |  | > 0.3 mg/kg |  | 0.1 mg/kg | β1 ≥ β2 (low cardioselectivity β1 ≥β2) | ≤ 0.1 mg/kg |  |  |  |  |  |  |  |  | 7.9 nM | 14 nM |  |
| Cc1cccc(OCC(O)CNC(C)Cc2c[nH]c3ccccc23)c1 (stereo not drawn) [compound 7782] |  | no affinity |  |  | 0.3 mg/kg |  | ≥ 3 mg/kg | β1 > β2 (cardioselectivity (β1 >β2)) | 0.1 to 0.3 mg/kg | cardioselective in vivo |  |  | 30 nM |  |  |  |  | 53 nM | 61.5 nM |  |
